This assay relates to NCAPG2 pT1010. Kind of assay: NCAPG2 pT1010-specific antibody reactivity after phosphorylase inhibitor treatment of nocodazole-treated breast cancer cells. The format is cell-based, human. As to conditions: MBAMB 231 treated with nocodazole, then inhibitor for 2 hours; FIG. 1B, 1C. How it is done:
In addition, to confirm a phosphorylase inducing phosphorylation, after treating a breast cancer cell line MBAMB 231 with nocodazole, which is a mitosis-inducing reagent, and then with inhibitors of phosphorylases regulating mitosis for 2 hours, the reactivity of the NCAPG2 pT1010-specific antibody was confirmed.

As to `O=C1NC(=NCc2cccs2)S/C1=C\c1ccc2ncccc2c1` [RO3306], the “NCAPG2 pT1010 phosphospecific bands after kinase inhibition” value is “phosphospecific bands disappear”. Then `c1nc2nc(Nc3ccc(N4CCOCC4)cc3)nc(NC3CCCCC3)c2[nH]1` [reversine], with “phosphospecific bands disappear”.

Values taken from patent US20240279319A1, “ANTIBODY FOR IDENTIFYING PHOSPHORYLATION-SPECIFIC REACTIONS OF THREONINE AT POSITION 1010 OF NCAPG2, AND USE THEREOF” (NATIONAL CANCER CENTER, priority 2021, published 2024).
